SMILES strings stand for the structures. Peptide text beside a SMILES is read from it. * marks the point of attachment. βGlc = OC[C@H]1O[C@@H](*)[C@H](O)[C@@H](O)[C@@H]1O

The data set relates to Sprague Dawley rats. The data set is described as follows: 28-day repeat-dose subcutaneous toxicology study (main and recovery) in Sprague Dawley rats. The format is in vivo, rat. The protocol: Rats used in studies were inspected upon receipt for good health and were acclimated for 7 days at a minimum. Male and female rats were randomly selected for one of the four treatment groups upon receipt. Group 1 rats received vehicle control (0.9 % sodium chloride (saline) for injection, USP) subcutaneously for 28 days. Rats in groups 2–4 received PNA5 at 1, 5, or 40 mg/kg/day subcutaneously for 28 days (Table 1). Rats for all studies were dosed once daily for 28 consecutive days via subcutaneous bolus injection. The first day of dosing was based on day 1 body weights. Toxicokinetic study animals were dosed in the same fashion as for the main and recovery study animals.
Rats are observed at least twice daily (morning and afternoon) beginning upon arrival through termination/release for mortality. For the toxicology main study, 10 rats per sex were randomly assigned to groups 1–4. 5 rats per sex were assigned to groups 1 (control) and group 4 (PNA5 at 40 mg/kg/day) for the toxicology recovery study. The number of animals used for the toxicokinetic groups was calculated to meet a sufficient number of animals to provide samples for toxicokinetic analysis while minimizing the number of blood collections per animal.
After 28 treatments, animals that were a part of the main and toxicokinetic study were scheduled for euthanasia on day 29, during which the necropsy measures were collected for the main study animals. Rats that were a part of the recovery animal study started the recovery period on day 29 and were scheduled for euthanasia on day 57, during which the same necropsy measures were collected. Animals were euthanized for humane reasons or at study termination via carbon dioxide inhalation followed by exsanguination via the vena cava for necropsy. Main Study and Recovery animals were fasted overnight prior to the scheduled necropsy. Following the final blood collection, animals in the toxicokinetic studies were euthanized by inhalation of carbon dioxide but were not exsanguinated for necropsy.
The following parameters and end points were evaluated in this study: mortality, clinical observations, body weights, body weight gains, food consumption, ophthalmology, clinical pathology parameters (hematology, coagulation, clinical chemistry, and urinalysis), toxicokinetic parameters, organ weights, and macroscopic and microscopic examinations.
Animals were observed daily. On days with dosing, observations were made 10–30 min postdosing. During the dosing, observations included but were not limited to the following: Changes in skin on the whole animal and at the injection site, fur, eyes, mucous membrane, and respiratory functions.
A detailed clinical observation was performed 1 week prior to randomization, on the date of randomization, and then weekly during the study period, with the last observation on the day of the scheduled necropsy.
The injection site was shaved and marked for identification and evaluation during the study. The injection site was collected at necropsy.
Rats were weighed within 4 days of receipt, on the day of randomization, daily during the study, and on the day of the scheduled necropsies. Dogs were weighed one week prior to randomization (± 2 days), on the day of randomization, on Day 1 (prior to dosing), weekly (± 2 days) during the study period, on the day prior to the scheduled necropsies, and on the day of the scheduled necropsy.
Rats' food consumption was measured quantitatively once weekly beginning on Day 1 and persisting throughout the study. Dogs' food consumption was measured daily beginning on Day 1 and persisting throughout the study.
Ophthalmic examinations were conducted by a board-certified veterinary ophthalmologist using an indirect ophthalmoscope and slit lamp biomicroscope. Prior to examination, animals will be treated with a mydriatic agent. […]

Setting [1] is: rats, 1, 5, 40 mg/kg/day s.c. for 28 days.
Setting [2] is: rats, main study, day 29 necropsy.
Setting [3] is: rats, recovery study, 40 mg/kg/day vs control.

Turning to `CC[C@H](C)[C@H](NC(=O)[C@H](Cc1ccc(O)cc1)NC(=O)[C@@H](NC(=O)[C@H](CCCNC(=N)N)NC(=O)[C@@H](N)CC(=O)O)C(C)C)C(=O)N[C@@H](Cc1c[nH]cn1)C(=O)N[C@@H](CO[C@@H]1O[C@H](CO)[C@@H](O)[C@H](O)[C@H]1O)C(N)=O` [PNA5, Ang-1–6-Ser-O-Glu-NH2] (H-DRVYIHS(βGlc)-NH2), the “tolerability (mortality, adverse findings)” value (Sprague-Dawley rats, main and recovery studies, s.c. bolus once daily 28 days, 1, 5, 40 mg/kg/day) was “well tolerated at all doses with no effects on mortality or adverse findings”. Further, under “rats, 40 mg/kg/day group females, main study, considered within the expected response to the injection procedure”, the “mixed cell infiltration at the subcutaneous dorsoscapular injection site” value is “increase in incidence and severity of mixed cell infiltration”. In addition, the “prostate/seminal vesicle weight normalized to body weight or brain weight vs control” value (rats, 40 mg/kg/day group males, recovery study, considered incidental, absolute weights not different) is given as “significantly higher”. Under setting [1], the “body weights and body weight gains” value is “unaffected”; the food consumption entry is given as “unaffected”. Besides, where the note is “rats, 1, 5, 40 mg/kg/day subq for 28 days, main and recovery study”, the clinical observations entry is recorded as “no test article-related clinical observations”. Besides, the survival result (rats, 1, 5 and 40 mg/kg/day s.c. for 28 days) was “All animals survived until the scheduled euthanasia”. The ophthalmic examinations result (rats, all test article-treated groups) is listed as “No ophthalmic lesions indicative of toxicity were observed”. Besides, where the note is “rats, main study, all dose levels”, the “hematology, coagulation, clinical chemistry and urinalysis parameters” value was “unaffected”. For the same molecule, under setting [2], the macroscopic findings entry is listed as “no test article-related macroscopic findings”, the microscopic findings result is “no test article-related microscopic findings” and the organ weights entry is given as “no test article-related organ weight changes”. Moreover, the microscopic findings entry (rats, recovery study) is “No test article-related microscopic findings were noted”. Under setting [3], the macroscopic findings result was “no test article-related macroscopic findings” and the organ weights entry is on record as “no test article-related organ weight changes”.

Values taken from article PMC12612990, “PNA5, a glycosylated angiotensin-(1−7) mas receptor agonist for vascular dementia: A two species toxicology and toxicokinetic study” (Toxicology Reports, 2025).
